Data: patent publication US8476265B2, “Compounds-801” (AstraZeneca AB, priority 2010, dated 2013)
pIC50: −log10 of the molar value. Where a name gives a salt, the structure may show the parent alone.

Assays:
[1] = target: T1, human muscarinic acetylcholine M3 receptor (Homo sapiens, UniProt P20309); assay: Muscarinic 3 receptor binding assay ([3H]NMS competition, SPA), pIC50; details: [3H]NMS 0.1 nM, CHO-K1 cell membranes expressing human M3 receptor
T1 construct: expressed in transfected cells; host or cells: CHO-K1 (Chinese Hamster Ovary) cell membranes
Method: Muscarinic 3 Receptor Binding Assay
The affinity (pIC50) of compounds binding to the M3 receptor is determined by competition binding of [^3H]N-methyl scopolamine (NMS) to CHO-K1 (Chinese Hamster Ovary) cell membranes expressing the human muscarinic acetylcholine M3 receptor (M3-ACh) in a scintillation proximity assay (SPA) format.
SPA beads are precoated with membranes and then incubated at 2 mg of beads per well with serial dilutions of compounds of the invention, [^3H]NMS at 0.1 nM, quarter Kd (experimentally determined dissociation constant) and assay buffer (20 mM HEPES pH 7.4 containing 5 mM MgCl2 and 0.1% (w/v) bovine serum albumin). The assay is conducted in a final volume of 200 μL, in the presence of 1% (v/v) dimethyl sulphoxide (DMSO). Total binding of [^3H]NMS is determined in the absence of competing compound and non-specific binding of [^3H]NMS is determined in the presence of 1 μM atropine. The plates are incubated for 16 hours at room temperature and then read on Wallac Microbeta™ using a normalised ^3H protocol. The pIC50, defined as the negative logarithm of the molar concentration of compound required for 50% reduction in specific [^3H]-NMS binding, is determined.

Adrenergic β2 = target: T2, Adrenergic β2 (Homo sapiens, UniProt P07550); assay: Adrenergic β2 mediated cAMP production in H292 cells (AlphaScreen), concentration response; type: cell-based; details: for EC50: 60 min, 300 μM rolipram, read-out: β2 pEC50 (converted); for β2 Intrinsic Activity: fraction relative to the maximum activity determined for formoterol
T2 construct: Adherent H292 cells are removed from tissue culture flasks by treatment with Accutase™ cell detachment solution; endogenous in cells; host or cells: H292 cells
Method: Assay for Adrenergic 132 Mediated cAMP Production
H292 cells are grown in 225 cm2 flasks incubator at 37° C., 5% CO2 in RPMI medium containing 10% (v/v) FBS (foetal bovine serum) and 2 mM L-glutamine.
Adherent H292 cells re removed from tissue culture flasks by treatment with Accutase™ cell detachment solution for 15 minutes. Flasks are incubated for 15 minutes in a humidified incubator at 37° C., 5% CO2. Detached cells are re-suspended in RPMI media (containing 10% (v/v) FBS and 2 mM L-glutamine) at 0.1×10^6 cells per mL. 10000 cells in 100 μl, are added to each well of a tissue-culture-treated 96-well plate and the cells incubated overnight in a humidified incubator at 37° C., 5% CO2. The culture media is removed and cells are washed twice with 100 μL assay buffer and replaced with 50 μl assay buffer (HBSS solution containing 10 mM HEPES pH7.4 and 5 mM glucose). Cells are rested at room temperature for 20 minutes after which time 25 μl of rolipram (1.2 mM made up in assay buffer containing 2.4% (v/v) dimethylsulphoxide) is added. Cells are incubated with rolipram for 10 minutes after which time test compounds are added and the cells are incubated for 60 minutes at room temperature. The final rolipram concentration in the assay is 300 μM and final vehicle concentration is 1% (v/v) dimethylsulphoxide. The reaction is stopped by removing supernatants, washing once with 100 μL assay buffer and replacing with 50 μL lysis buffer. The cell monolayer is frozen at −80° C. for 30 minutes (or overnight).
AlphaScreen™ cAMP detection
The concentration of cAMP (cyclic adenosine monophosphate) in the cell lysate is determined using AlphaScreen™ methodology. The frozen cell plate is thawed for 20 minutes on a plate shaker then 10 μL of the cell lysate is transferred to a 96-well white plate. 40 μL of mixed AlphaScreen™ detection beads pre-incubated with biotinylated cAMP, is added to each well and the plate incubated at room temperature for 3 hours in the dark. The AlphaScreen™ signal is measured using an EnVision spectrophotometer (Perkin-Elmer Inc.) with the recommended manufacturer's settings. cAMP concentrations are determined by reference to a calibration curve determined in the same experiment using standard cAMP concentrations. Concentration response curves for agonists are constructed and data is fitted to a four parameter logistic equation to determine both the pEC50 and Intrinsic Activity. Intrinsic Activity is expressed as a fraction relative to the maximum activity determined for formoterol in each experiment.

T2 sequence (P07550 whole entry): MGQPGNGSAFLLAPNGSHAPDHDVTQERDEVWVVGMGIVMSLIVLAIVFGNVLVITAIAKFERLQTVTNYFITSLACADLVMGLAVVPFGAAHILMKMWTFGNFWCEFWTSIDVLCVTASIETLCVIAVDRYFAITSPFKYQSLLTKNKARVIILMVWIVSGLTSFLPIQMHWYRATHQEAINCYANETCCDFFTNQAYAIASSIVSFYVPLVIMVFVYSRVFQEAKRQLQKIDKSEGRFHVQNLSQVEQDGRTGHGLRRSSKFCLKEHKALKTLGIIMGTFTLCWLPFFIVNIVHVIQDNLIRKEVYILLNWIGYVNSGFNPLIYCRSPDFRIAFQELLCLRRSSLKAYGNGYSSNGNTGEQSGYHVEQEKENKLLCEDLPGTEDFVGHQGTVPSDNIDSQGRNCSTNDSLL
T1 sequence (P20309 whole entry): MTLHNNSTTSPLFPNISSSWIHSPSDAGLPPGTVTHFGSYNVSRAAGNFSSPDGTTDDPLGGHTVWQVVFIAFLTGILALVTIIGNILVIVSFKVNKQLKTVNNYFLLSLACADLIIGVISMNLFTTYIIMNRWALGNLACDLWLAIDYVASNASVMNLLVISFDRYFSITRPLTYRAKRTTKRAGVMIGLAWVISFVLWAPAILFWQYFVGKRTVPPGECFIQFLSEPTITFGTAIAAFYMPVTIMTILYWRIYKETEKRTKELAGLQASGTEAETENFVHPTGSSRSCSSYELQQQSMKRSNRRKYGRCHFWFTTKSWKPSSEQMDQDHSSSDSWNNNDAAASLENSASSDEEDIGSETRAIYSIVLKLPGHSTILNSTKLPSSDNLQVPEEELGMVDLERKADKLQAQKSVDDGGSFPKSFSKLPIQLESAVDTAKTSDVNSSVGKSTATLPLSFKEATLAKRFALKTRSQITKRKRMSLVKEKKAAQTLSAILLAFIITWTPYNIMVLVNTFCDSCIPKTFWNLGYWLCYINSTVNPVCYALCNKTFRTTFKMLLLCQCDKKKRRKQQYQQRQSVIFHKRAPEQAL

pIC50 [1] | EC50 (Adrenergic β2) [nM] | β2 Intrinsic Activity (Adrenergic β2) | SMILES
8.20 | 39.8 | 0.9 | Cc1nc(C(=O)N2CCOC3(CCN(Cc4ccc(CCOCCC(=O)N(CCNCCc5ccc(O)c6c5OCC(=O)N6)C5CCCCC5)cc4)CC3)C2)cs1 [Example 45, N-Cyclohexyl-N-(2-(2-(5-hydroxy-3-oxo-3,4-dihydro-2H-benzo[b][1,4]oxazin-8-yl)ethylamino)ethyl)-3-(4-((4-(2-methylthiazole-4-carbonyl)-1-oxa-4,9-diazaspiro[5.5]undecan-9-yl)methyl)phenethoxy)propanamide ditrifluoroacetate]
9.60 | 158 | 1.0 | CCC(CC)c1nc(C(=O)N2CCOC3(CCN(Cc4cccc(CCOCCC(=O)N(CCNCCc5ccc(O)c6c5OCC(=O)N6)C5CCCCC5)c4)CC3)C2)cs1 [Example 96, N-Cyclohexyl-N-(2-(2-(5-hydroxy-3-oxo-3,4-dihydro-2H-benzo[b][1,4]oxazin-8-yl)ethylamino)ethyl)-3-(3-((4-(2-(pentan-3-yl)thiazole-4-carbonyl)-1-oxa-4,9-diazaspiro[5.5]undecan-9-yl)methyl)phenethoxy)propanamide]
9.70 | 251 | 1.1 | CCCc1cc(C(=O)N2CCOC3(CCN(Cc4cccc(CCOCCC(=O)N(CCNCCc5ccc(O)c6c5OCC(=O)N6)C5CCCCC5)c4)CC3)C2)cs1 [Example 93, N-Cyclohexyl-N-(2-(2-(5-hydroxy-3-oxo-3,4-dihydro-2H-benzo[b][1,4]oxazin-8-yl)ethylamino)ethyl)-3-(3-((4-(5-propylthiophene-3-carbonyl)-1-oxa-4,9-diazaspiro[5.5]undecan-9-yl)methyl)phenethoxy)propanamide]
8.10 | 20 | 1.0 | CC(C)c1nc(C(=O)N2CCOC3(CCN(CCOc4cccc(CCOCCC(=O)N(CCNCCc5ccc(O)c6c5OCC(=O)N6)C5CCCCC5)c4)CC3)C2)cs1 [Example 53, N-Cyclohexyl-N-(2-(2-(5-hydroxy-3-oxo-3,4-dihydro-2H-benzo[b][1,4]oxazin-8-yl)ethylamino)ethyl)-3-(3-(2-(4-(2-isopropylthiazole-4-carbonyl)-1-oxa-4,9-diazaspiro[5.5]undecan-9-yl)ethoxy)phenethoxy)propanamide ditrifluoroacetate]
8.90 | 251 | 1.1 | O=C1COc2c(CCNCCN(C(=O)CCOCCc3cccc(CN4CCC5(CC4)CN(C(=O)c4ccc6sccc6c4)CCO5)c3)C3CCCCC3)ccc(O)c2N1 [Example 92, 3-(3-((4-(Benzo[b]thiophene-5-carbonyl)-1-oxa-4,9-diazaspiro[5.5]undecan-9-yl)methyl)phenethoxy)-N-cyclohexyl-N-(2-(2-(5-hydroxy-3-oxo-3,4-dihydro-2H-benzo[b][1,4]oxazin-8-yl)ethylamino)ethyl)propanamide]
8.30 | 200 | 1.0 | Cc1cc(C(=O)N2CCOC3(CCN(Cc4cccc(CCOCCC(=O)N(CCNCCc5ccc(O)c6c5OCC(=O)N6)C5CCCCC5)c4)CC3)C2)sc1C [Example 89, N-Cyclohexyl-3-(3-((4-(4,5-dimethylthiophene-2-carbonyl)-1-oxa-4,9-diazaspiro[5.5]undecan-9-yl)methyl)phenethoxy)-N-(2-(2-(5-hydroxy-3-oxo-3,4-dihydro-2H-benzo[b][1,4]oxazin-8-yl)ethylamino)ethyl)propanamide]

More lines, now with the values behind:

SMILES | pIC50 [1] | EC50 (Adrenergic β2) [nM] | β2 Intrinsic Activity (Adrenergic β2)
CC(C)CN(CCNCCc1ccc(O)c2c1OCC(=O)N2)C(=O)CCOCCc1cccc(CCN2CCC3(CC2)CN(C(=O)c2csc(C(C)C)n2)CCO3)c1 [Example 40, N-(2-(2-(5-Hydroxy-3-oxo-3,4-dihydro-2H-benzo[b][1,4]oxazin-8-yl)ethylamino)ethyl)-N-Isobutyl-3-(3-(2-(4-(2-isopropylthiazole-4-carbonyl)-1-oxa-4,9-diazaspiro[5.5]undecan-9-yl)ethyl)phenethoxy)propanamide ditrifluoroacetate] | 8.90 | 20 | 1.0
CC(C)c1nc(C(=O)N2CCOC3(CCN(Cc4cccc(CCOCCC(=O)N(CCNCCc5ccc(O)c6c5OCC(=O)N6)C(C)C)c4F)CC3)C2)cs1 [Example 16, 3-(2-Fluoro-3-((4-(2-isopropylthiazole-4-carbonyl)-1-oxa-4,9-diazaspiro[5.5]undecan-9-yl)methyl)phenethoxy)-N-(2-(2-(5-hydroxy-3-oxo-3,4-dihydro-2H-benzo[b][1,4]oxazin-8-yl)ethylamino)ethyl)-N-isopropylpropanamide ditrifluoroacetate] | 9.60 | 200 | 0.8
CCN(CCNCCc1ccc(O)c2c1OCC(=O)N2)C(=O)CCOCCc1cccc(CCN2CC3(C2)CN(C(=O)c2csc(C(C)C)n2)CCO3)c1 [Example 177, N-ethyl-N-(2-(2-(5-hydroxy-3-oxo-3,4-dihydro-2H-benzo[b][1,4]oxazin-8-yl)ethylamino)ethyl)-3-(3-(2-(8-(2-isopropylthiazole-4-carbonyl)-5-oxa-2,8-diazaspiro[3.5]nonan-2-yl)ethyl)phenethoxy)propanamide, trifluoroacetate salt] | 8.90 | 10 | 1.1
CCN(CCNCCc1ccc(O)c2[nH]c(=O)sc12)C(=O)CCOCCc1cccc(CN2CCC3(CC2)CN(C(=O)c2csc(C(C)C)n2)CCO3)c1OC [Example 68, N-Ethyl-N-(2-(2-(4-hydroxy-2-oxo-2,3-dihydrobenzo[d]thiazol-7-yl)ethylamino)ethyl)-3-(3-((4-(2-isopropylthiazole-4-carbonyl)-1-oxa-4,9-diazaspiro[5.5]undecan-9-yl)methyl)-2-methoxyphenethoxy)propanamide ditrifluoroacetate] | 8.00 | 10 | 0.6
CCCN(CCNCCc1ccc(O)c2c1OCC(=O)N2)C(=O)CCOCCc1cccc(CN2CCC3(CC2)CN(C(=O)c2csc(C(C)C)n2)CCO3)c1Cl [Example 29, 3-(2-Chloro-3-((4-(2-isopropylthiazole-4-carbonyl)-1-oxa-4,9-diazaspiro[5.5]undecan-9-yl)methyl)phenethoxy)-N-(2-(2-(5-hydroxy-3-oxo-3,4-dihydro-2H-benzo[b][1,4]oxazin-8-yl)ethylamino)ethyl)-N-propylpropanamide ditrifluoroacetate] | 8.90 | 39.8 | 0.9
CC(C)c1nc(C(=O)N2CCOC3(CCN(CCOc4ccc(CCOCCC(=O)N(CCNCCc5ccc(O)c6c5OCC(=O)N6)C5CCCCC5)cc4)CC3)C2)cs1 [Example 51, N-Cyclohexyl-N-(2-(2-(5-hydroxy-3-oxo-3,4-dihydro-2H-benzo[b][1,4]oxazin-8-yl)ethylamino)ethyl)-3-(4-(2-(4-(2-isopropylthiazole-4-carbonyl)-1-oxa-4,9-diazaspiro[5.5]undecan-9-yl)ethoxy)phenethoxy)propanamide ditrifluoroacetate] | 8.40 | 63.1 | 1.1
CCN(CCNCCc1ccc(O)c2[nH]c(=O)sc12)C(=O)CCOCCc1ccc(F)c(CN2CCC3(CC2)CN(C(=O)c2csc(C(C)C)n2)CCO3)c1 [Example 44, N-Ethyl-3-(4-fluoro-3-((4-(2-isopropylthiazole-4-carbonyl)-1-oxa-4,9-diazaspiro[5.5]undecan-9-yl)methyl)phenethoxy)-N-(2-(2-(4-hydroxy-2-oxo-2,3-dihydrobenzo[d]thiazol-7-yl)ethylamino)ethyl)propanamide] | 9.30 | 501 | 1.1
